Tests used:
[1] = tested on: tumour necrosis factor-α (TNF-α); test: Mouse Tumour Necrosis Factor Test (Test B), mouse endotoxin shock model, serum TNF-α by ELISA; type: in vivo, BALB/c mice; details: Mus musculus; minimum effective oral dose giving significant reduction in serum TNF-α of ≥35%; dosed 2 h before LPS i.p.; ≤ = active at dose given but not tested at lower doses; read-out: MTNF:MED
Description: Preferred compounds of the present invention are active in an in-vivo test which determines the ability of the compounds to inhibit the release of tumour necrosis factor-α (TNF-α) in a mouse endotoxin shock model (Test B). This model is similar to that described by Zuckerman and Bendele (1989), Infection and Immunity 57 (10): p3009-3013.
Each compound of formula I was combined with a carrier of a solution of 1.5% v/v sorbitan esters under the trade name Tween 80 and 0.25% v/v cellosize in sterile water (100 µl) and was administered orally to a group of four BALB/c mice. The concentration of compound was such as to provide dosages selected from 100, 30, 10, 3, 1, 0.1 and 0.03 mg/kg. Two hours after such oral administration, lipopolysaccharide (LPS) (E. coli 0127:B8) (100 µg) in sterile water (0.2 ml) was administered intraperitoneally to the test mice.
A control group of eight BALB/c mice was treated in a similar manner as the test group except that no test compound was included with the carrier.
One hour after LPS administration the mice were killed and blood was collected by cardiac puncture. The blood was incubated at 20°C for 2 hours and the serum was separated from the clotted blood following centrifugation. Serum tumour necrosis factor-α (TNF-α) levels were assayed by an enzyme-linked immunosorbent assay (ELISA) and the concentration of TNF-α in each of the drug-treated groups was compared with the control group by one-way analysis of variance followed by a multiple t-test.
The ELISA was carried out by coating a 96-well vinyl assay plate (Costar) overnight at 4°C with 50 µl per well of 2 µg/ml hamster anti-mouse TNF monoclonal antibody in 0.1M sodium hydrogen carbonate buffer at pH 8.2. After washing the plate with phosphate buffered saline (PBS) containing 0.05% v/v sorbitan esters under the trade name Tween 20 (wash buffer), a blocking/dilution buffer (10% sheep serum in PBS containing 0.1% v/v sorbitan esters under the trade name Tween 20 (200 µl)) was aliquoted to each well and incubated at 37°C for 0.5 hours. After aspirating the blocking buffer, the serum samples and pure TNF (as a standard) diluted in blocking/dilution buffer, were added to the wells and incubated at 37°C for 2 hours. After washing with the wash buffer, a polyclonal rabbit anti-mouse TNF-α antibody in blocking/dilution buffer (100 µl of a 1 in 10,000 dilution) was added and incubated for a further 1.5 hours at 37°C. After further washes, anti-rabbit IgG peroxidase conjugate (100 µl of a 1 in 4000 dilution) was added and incubated at 37°C for 0.5 hours. After further washing, the substrate solution (100 µl per well of 0.1 mg/ml 3,3', 5,5'-tetramethylbenzidine dihydrochloride in 0.1M phosphate citrate buffer, pH 5.0, to which 2 µl of 30% hydrogen peroxide per 10 ml was added just before use) was added and the colour allowed to develop. The reaction was stopped by the addition of 1M sulphuric acid (25 µl) and the optical density read in a multichannel spectrophotometer at 450 nm. The mean TNF-α concentration was determined by comparison with the standard curve and the mean TNF-α concentration for each group compared with that produced by the control group. Drug treatments which cause a statistically significant reduction in TNF-α concentration of ≥35% at a single dose at 100 mg/kg or less were considered active.

[2] = tested on: Zymosan Stimulated Macrophages; test: Inhibition of Arachidonic Acid Release from Zymosan Stimulated Macrophages (Test D); type: cell-based, MF1 mice; details: Mus musculus, Macrophage, tested at 100, 50, 20, 10, 5 and 1 µM
Description: Female MF1 mice (weighing 20 to 25 g) were killed using a rising concentration of CO2. The mice were laid on their backs and the abdomens wiped with 70% alcohol. The skin was pulled back, exposing the peritoneal wall. Medium A (5 ml) (see below) was injected into the peritoneal cavity of each mouse followed by approximately 1 ml of air using a 20 ml syringe and a 21G x 40 mm needle in order to form a suspension of macrophage cells. The medium and cells were then removed using a 19G x 40 mm needle. The resulting suspension was returned to a sterile beaker kept on ice. The extracts from all the mice were pooled and this pooled cell suspension was counted using a Coulter counter and adjusted to a final cell count of 1 - 1.3 x 10^6 cells/ml prior to labelling with [^3H]-arachidonic acid. Typically five mice provided sufficient cells for each multiwell plate. Sufficient [^3H]arachidonic acid in ethanol to give a final concentration of 1.6 µCi/ml (equivalent to 40 µCi/plate) was blown to dryness under nitrogen. The arachidonic acid was then resuspended in 1 or 2 ml of the cell suspension which was then mixed with the remainder of the cell suspension in a centrifuge bottle. The labelled cell suspension was then plated out into sterile plastic 96 flat-bottomed well plates (250 µl per well) and incubated overnight at 37°C in a moist atmosphere of 5% CO2, 95% air. The following day, non-adherent cells were removed by washing 3 times with sterile phosphate buffered saline (PBS). The adherent peritoneal macrophages were then cultured for a further 24 hours in the presence or absence of drugs, in medium B (see below) at 37° in a 5% CO2 atmosphere in order to measure the effects of drugs on the spontaneous release of arachidonic acid in the absence of stimulus. After this incubation, supernatants were removed to give media 1 and stored in sealed multi-well plates at 4°C prior to scintillation counting. Drugs which potentiated spontaneous release of arachidonic acid (125% of controls) were deemed to be toxic at the concentration at which this phenomenon occurred. The supernatants were replaced by fresh medium C containing fresh drug and a stimulus. Three drugs were tested at six concentrations (100, 50, 20, 10, 5 and 1 µM) in replicates of four on each plate. The other wells contained controls consisting of a positive control (e.g. dexamethasone), medium (B) only and medium C only. Incubation was then continued for a further 5 hours, whereupon the supernatants were collected to give media 2 and the adherent cells washed with PBS. The cells were then lysed with 100 µl of 0.1% TRITON® X100 in a 0.1% solution of bovine serum albumin in 0.9% saline and mechanically disrupted to give cell lysates. These supernatants (media 2) and cell lysates (Cells) were also stored in sealed multi-well plates at 4°C prior to scintillation counting. 200 µl aliquots of media, or 100 µl aliquots of cells were counted using 2 ml of OPTIPHASE "HIGH SAFE" (Trademark of LKB) as scintillant. […] The value for the arachidonic acid release in the absence of stimulus (spontaneous, cpm of media 2) from cells which had been exposed to neither stimulus nor drug was subtracted from all equivalent values (cpm media 2, stimulated with or without drug) to give the net stimulated release. The percentage inhibition of arachidonic acid release caused by a drug may then be calculated using the following equation. % Inhibition = 100 -(net stimulated release in presence of drug x 100)/(net stimulated release in absence of drug) [formula] […] The zymosan stimulant was prepared as follows:- zymosan (200mg) (supplied by Sigma) was added to PBS (20ml). The mixture was boiled for 30 minutes and the volume restored to 20ml with water. The zymosan was harvested by centrifugation at 500Xg for 5 minutes, washed twice by resuspension in PBS (10ml) and centrifugation. After the final separation, the zymosan was resuspended in 20ml PBS and stored as lml aliquots at -20°C. […]

Row | Compound | IC50 [2] [µM] | minimal effective dose [1] [mg/kg]
1 | c1ccc(OCCN2CCC(CCn3ccnc3)CC2)cc1 [Example 87, 4-[2-(Imidazol-1-yl)ethyl]-1-(2-phenoxyethyl)piperidine] | 18 | ≤ 100
2 | C(=Cc1ccccc1)CN1CCC(CCn2ccnc2)CC1 [Example 90, 1-Cinnamyl-4-[2-(imidazol-1-yl)ethyl]-piperidine] | 31 | ≤ 30
3 | O=C(CN1CCC(CCn2ccnc2)CC1)Nc1ccc(C(F)(F)F)cc1 [Example 91, 4-[2-(Imidazol-1-yl)ethyl]piperidino-4'-trifluoromethylacetanilide] | 17 | 30
4 | CC(c1ccc(Cl)cc1)N1CCC(CCn2ccnc2)CC1 (centres unmarked) [Example 93, 1-[1-(4-chlorophenyl)ethyl]-4-[2-(imidazol-1-yl)-ethyl]piperidine] | 56 | 30
5 | Cl.Cl.c1ccc(CCCN2CCC(CCn3ccnc3)CC2)cc1 [Example 98, 4-[2-(imidazol-1-yl)ethyl]-1-(3-phenylpropyl)piperidine dihydrochloride] | 62 | 30
6 | c1ccc(CCCN2CCC(Cn3ccnc3)CC2)cc1 [Example 102, 4-Imidazol-1-ylmethyl-1-(3-phenylpropyl)piperidine] | 54 | ≤ 100
7 | CC1CN(CCCc2ccccc2)CCC1CCn1ccnc1 (centres unmarked) [Example 103, 4-[2-(Imidazol-1-yl)ethyl]-3-methyl-1-(3-phenylpropyl)piperidine] | 28 | ≤ 30
8 | c1ccc(CCCN2CCC(CCn3ccnc3-c3ccccc3)CC2)cc1 [Example 109, 4-[2-(2-Phenylimidazol-1-yl)ethyl]-1-(3-phenylpropyl)piperidine] | 14 | 100
9 | Cc1nc2ccccc2n1CCC1CCN(CCCc2ccccc2)CC1 [Example 112, 2-Methyl-1-{2-[1-(3-phenylpropyl)piperidin-4-yl]ethyl}benzimidazole] | 16 | 100
10 | CC(Cn1ccnc1)C1CCN(CCCc2ccccc2)CC1 (centres unmarked) [Example 113, 4-[2-(Imidazol-1-yl)-1-methylethyl]-1-(3-phenylpropyl)piperidine] | 33 | 10
11 | c1ccc(CCCN2CCC(CCn3cnc4ccccc43)CC2)cc1 [Example 114, 1-{2-[1-(3-Phenylpropyl)piperidin-4-yl]-ethyl}benzimidazole] | 34 | 30
12 | Cc1nc(Cl)c(Cl)n1CCC1CCN(CCCc2ccccc2)CC1 [Example 115, 4-[2-(4,5-Dichloro-2-methylimidazol-1-yl)ethyl]-1-(3-phenylpropyl)piperidine] | 31 | 100
13 | Cc1ncn(CCC2CCN(CCCc3ccccc3)CC2)c1C [Example 116, 4-[2-(4,5-Dimethylimidazol-1-yl)ethyl]-1-(3-phenylpropyl)piperidine] | 18 | 30

Now from value to molecule, other results behind:

Row | IC50 [2] [µM] | Compound | minimal effective dose [1] [mg/kg]
14 | 21 | Cc1nccn1CCC1CCN(CCCc2ccccc2)CC1 [Example 117, 4-[2-(2-Methylimidazol-1-yl)ethyl]-1-(3-phenylpropyl)piperidine] | 100
15 | 52 | Cc1ccc(CCCN2CCC(CCn3ccnc3)CC2)cc1 [Example 122, 4-[2-(Imidazol-1-yl)ethyl]-1-[3-(4-methylphenyl)propyl]piperidine] | ≤ 30
16 | 35 | Clc1ccc(CCCN2CCC(CCn3ccnc3)CC2)cc1 [Example 123, 1-[3-(4-Chlorophenyl)propyl]-4-[2-(imidazol-1-yl)ethyl]piperidine] | ≤ 30
17 | 16 | CSc1ccc(CCCN2CCC(CCn3ccnc3)CC2)cc1 [Example 127, 4-[2-(Imidazol-1-yl)ethyl]-1-[3-(4-methylthiophenyl)propyl]piperidine] | 30
18 | 27 | c1ccc(CCN2CCC(CCn3ccnc3)CC2)cc1 [Example 128, 4-[2-(Imidazol-1-yl)ethyl]-1-phenethylpiperidine] | ≤ 30
19 | 16 | c1ccc(CCCCN2CCC(CCn3ccnc3)CC2)cc1 [Example 129, 4-[2-(Imidazol-1-yl)ethyl]-1-(4-phenylbutyl)piperidine] | 30
